According to patent US20120122860A1, “SOLID FORMS OF SULFONAMIDES AND AMINO ACIDS” (Plexxikon, Inc., priority 2009, published 2012):

What was measured:
[1] = biological target: B-Raf V600E (Homo sapiens, UniProt P15056, V600E); experiment: Kinase activity assay, B-Raf V600E; format: biochemical; settings: read-out: activity toward kinase B-Raf V600E, IC50
[2] = biological target: B-Raf (Homo sapiens, UniProt P15056); experiment: Kinase activity assay, B-Raf; format: biochemical; settings: read-out: activity toward kinase B-Raf, IC50
[3] = biological target: T1, A-Raf (Homo sapiens, UniProt P10398); experiment: Kinase activity assay, A-Raf
T1 sequence (P10398 1-606): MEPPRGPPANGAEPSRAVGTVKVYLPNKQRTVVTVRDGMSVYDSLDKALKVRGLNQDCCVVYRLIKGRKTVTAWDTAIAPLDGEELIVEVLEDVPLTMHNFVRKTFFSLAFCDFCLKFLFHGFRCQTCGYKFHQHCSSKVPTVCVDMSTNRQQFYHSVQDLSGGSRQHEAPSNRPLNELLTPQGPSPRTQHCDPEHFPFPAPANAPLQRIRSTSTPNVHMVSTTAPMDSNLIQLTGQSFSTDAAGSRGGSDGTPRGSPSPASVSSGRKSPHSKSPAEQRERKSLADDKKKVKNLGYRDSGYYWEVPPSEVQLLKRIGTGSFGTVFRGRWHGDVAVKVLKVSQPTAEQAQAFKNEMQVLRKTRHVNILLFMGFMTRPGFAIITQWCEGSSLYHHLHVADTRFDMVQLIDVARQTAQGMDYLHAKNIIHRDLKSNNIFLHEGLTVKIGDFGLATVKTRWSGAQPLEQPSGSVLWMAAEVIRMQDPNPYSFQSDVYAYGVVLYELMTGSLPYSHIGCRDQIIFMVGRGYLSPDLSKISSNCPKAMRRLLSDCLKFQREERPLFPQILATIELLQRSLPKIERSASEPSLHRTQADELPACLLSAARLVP

[4] = biological target: C-Raf (Homo sapiens, UniProt P04049); experiment: Kinase activity assay, C-Raf
[5] = biological target: Kit (Homo sapiens, UniProt P10721); experiment: Kinase activity assay, Kit
[6] = biological target: Src (Homo sapiens, UniProt P12931); experiment: Kinase activity assay, Src
[7] = biological target: Kdr (Homo sapiens, UniProt P35968); experiment: Kinase activity assay, Kdr
[8] = biological target: MAP4K4 (Homo sapiens, UniProt O95819); experiment: Kinase activity assay, MAP4K4
[9] = biological target: Fms (Homo sapiens, UniProt P07333); experiment: Kinase activity assay, Fms
Fms, sequence (P07333 20-972): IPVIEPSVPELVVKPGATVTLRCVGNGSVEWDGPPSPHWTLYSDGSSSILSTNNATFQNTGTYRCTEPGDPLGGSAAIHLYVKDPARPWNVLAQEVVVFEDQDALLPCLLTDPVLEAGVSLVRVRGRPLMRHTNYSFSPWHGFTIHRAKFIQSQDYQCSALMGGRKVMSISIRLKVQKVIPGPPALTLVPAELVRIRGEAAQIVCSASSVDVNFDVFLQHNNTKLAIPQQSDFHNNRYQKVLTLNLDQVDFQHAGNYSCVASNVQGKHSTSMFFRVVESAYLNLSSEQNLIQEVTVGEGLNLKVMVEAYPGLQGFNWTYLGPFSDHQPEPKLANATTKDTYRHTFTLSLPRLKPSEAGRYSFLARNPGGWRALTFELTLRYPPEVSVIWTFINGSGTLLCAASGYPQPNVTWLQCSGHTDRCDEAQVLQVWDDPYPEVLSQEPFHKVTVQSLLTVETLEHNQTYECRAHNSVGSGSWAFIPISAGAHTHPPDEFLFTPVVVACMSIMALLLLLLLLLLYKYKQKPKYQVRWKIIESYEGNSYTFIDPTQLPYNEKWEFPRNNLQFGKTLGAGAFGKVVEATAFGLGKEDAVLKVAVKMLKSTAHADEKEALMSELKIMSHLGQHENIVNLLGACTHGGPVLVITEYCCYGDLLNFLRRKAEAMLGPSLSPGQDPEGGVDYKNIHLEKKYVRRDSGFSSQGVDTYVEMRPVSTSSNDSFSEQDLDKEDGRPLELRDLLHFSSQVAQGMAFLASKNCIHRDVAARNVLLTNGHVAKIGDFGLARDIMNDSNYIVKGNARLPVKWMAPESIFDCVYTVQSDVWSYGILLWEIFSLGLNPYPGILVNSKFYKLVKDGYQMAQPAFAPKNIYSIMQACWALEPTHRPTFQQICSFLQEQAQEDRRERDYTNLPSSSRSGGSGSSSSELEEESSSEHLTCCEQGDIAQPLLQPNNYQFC

C-Raf, sequence (P04049 whole entry): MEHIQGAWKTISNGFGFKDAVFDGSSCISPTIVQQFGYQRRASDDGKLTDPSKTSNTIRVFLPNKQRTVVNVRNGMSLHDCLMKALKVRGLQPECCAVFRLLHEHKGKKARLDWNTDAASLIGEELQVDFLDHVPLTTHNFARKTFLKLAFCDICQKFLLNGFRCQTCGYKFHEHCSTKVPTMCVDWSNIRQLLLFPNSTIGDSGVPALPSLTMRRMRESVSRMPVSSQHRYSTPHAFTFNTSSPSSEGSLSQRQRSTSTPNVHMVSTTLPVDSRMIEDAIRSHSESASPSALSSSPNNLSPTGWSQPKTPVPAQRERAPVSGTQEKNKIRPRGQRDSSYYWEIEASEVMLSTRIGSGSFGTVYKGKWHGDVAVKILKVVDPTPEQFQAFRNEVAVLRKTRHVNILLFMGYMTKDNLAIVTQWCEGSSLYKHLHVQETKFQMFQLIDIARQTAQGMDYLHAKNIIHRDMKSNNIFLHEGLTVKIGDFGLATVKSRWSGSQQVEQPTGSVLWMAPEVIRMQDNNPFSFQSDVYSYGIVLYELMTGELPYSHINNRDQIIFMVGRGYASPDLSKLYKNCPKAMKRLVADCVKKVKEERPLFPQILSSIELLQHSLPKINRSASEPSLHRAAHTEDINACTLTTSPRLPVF
Src, sequence (P12931 whole entry): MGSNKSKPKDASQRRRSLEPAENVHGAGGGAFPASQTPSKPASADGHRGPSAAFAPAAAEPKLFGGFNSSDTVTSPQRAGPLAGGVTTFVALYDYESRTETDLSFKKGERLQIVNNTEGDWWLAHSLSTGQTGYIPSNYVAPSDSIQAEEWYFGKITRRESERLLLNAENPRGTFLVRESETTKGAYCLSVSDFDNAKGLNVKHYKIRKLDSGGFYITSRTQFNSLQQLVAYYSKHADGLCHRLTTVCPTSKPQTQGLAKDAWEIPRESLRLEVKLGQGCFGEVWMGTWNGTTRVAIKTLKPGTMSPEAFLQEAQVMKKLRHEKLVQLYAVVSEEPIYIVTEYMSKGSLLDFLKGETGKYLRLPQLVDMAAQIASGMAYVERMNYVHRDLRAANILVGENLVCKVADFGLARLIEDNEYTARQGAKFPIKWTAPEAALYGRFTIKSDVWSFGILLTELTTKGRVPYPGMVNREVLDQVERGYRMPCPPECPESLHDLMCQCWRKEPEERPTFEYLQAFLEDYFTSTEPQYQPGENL
B-Raf V600E, sequence (P15056 whole entry V600E): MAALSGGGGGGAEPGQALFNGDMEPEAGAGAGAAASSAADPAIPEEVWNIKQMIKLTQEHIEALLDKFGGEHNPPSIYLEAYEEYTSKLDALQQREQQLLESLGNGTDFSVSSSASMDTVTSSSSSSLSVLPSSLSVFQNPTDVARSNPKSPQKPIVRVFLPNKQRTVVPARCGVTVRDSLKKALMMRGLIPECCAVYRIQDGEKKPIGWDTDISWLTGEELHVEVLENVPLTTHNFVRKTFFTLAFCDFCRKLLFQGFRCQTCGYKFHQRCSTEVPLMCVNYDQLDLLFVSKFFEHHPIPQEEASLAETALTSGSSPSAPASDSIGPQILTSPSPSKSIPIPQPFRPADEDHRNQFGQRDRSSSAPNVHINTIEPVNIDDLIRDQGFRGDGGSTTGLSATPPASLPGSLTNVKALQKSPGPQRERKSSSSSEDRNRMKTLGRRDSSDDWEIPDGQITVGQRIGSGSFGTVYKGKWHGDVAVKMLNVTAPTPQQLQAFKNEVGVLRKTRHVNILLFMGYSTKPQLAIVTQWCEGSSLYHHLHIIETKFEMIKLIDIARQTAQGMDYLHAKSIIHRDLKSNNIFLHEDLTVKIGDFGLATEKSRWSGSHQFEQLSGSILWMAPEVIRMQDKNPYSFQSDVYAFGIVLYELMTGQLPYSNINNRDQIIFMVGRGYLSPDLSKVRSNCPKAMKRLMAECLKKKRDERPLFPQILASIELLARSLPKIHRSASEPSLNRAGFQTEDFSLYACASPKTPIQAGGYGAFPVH
B-Raf, sequence (P15056 whole entry): as the sequence (P15056 whole entry V600E) above, with E600V counted along it
MAP4K4, sequence (O95819 whole entry): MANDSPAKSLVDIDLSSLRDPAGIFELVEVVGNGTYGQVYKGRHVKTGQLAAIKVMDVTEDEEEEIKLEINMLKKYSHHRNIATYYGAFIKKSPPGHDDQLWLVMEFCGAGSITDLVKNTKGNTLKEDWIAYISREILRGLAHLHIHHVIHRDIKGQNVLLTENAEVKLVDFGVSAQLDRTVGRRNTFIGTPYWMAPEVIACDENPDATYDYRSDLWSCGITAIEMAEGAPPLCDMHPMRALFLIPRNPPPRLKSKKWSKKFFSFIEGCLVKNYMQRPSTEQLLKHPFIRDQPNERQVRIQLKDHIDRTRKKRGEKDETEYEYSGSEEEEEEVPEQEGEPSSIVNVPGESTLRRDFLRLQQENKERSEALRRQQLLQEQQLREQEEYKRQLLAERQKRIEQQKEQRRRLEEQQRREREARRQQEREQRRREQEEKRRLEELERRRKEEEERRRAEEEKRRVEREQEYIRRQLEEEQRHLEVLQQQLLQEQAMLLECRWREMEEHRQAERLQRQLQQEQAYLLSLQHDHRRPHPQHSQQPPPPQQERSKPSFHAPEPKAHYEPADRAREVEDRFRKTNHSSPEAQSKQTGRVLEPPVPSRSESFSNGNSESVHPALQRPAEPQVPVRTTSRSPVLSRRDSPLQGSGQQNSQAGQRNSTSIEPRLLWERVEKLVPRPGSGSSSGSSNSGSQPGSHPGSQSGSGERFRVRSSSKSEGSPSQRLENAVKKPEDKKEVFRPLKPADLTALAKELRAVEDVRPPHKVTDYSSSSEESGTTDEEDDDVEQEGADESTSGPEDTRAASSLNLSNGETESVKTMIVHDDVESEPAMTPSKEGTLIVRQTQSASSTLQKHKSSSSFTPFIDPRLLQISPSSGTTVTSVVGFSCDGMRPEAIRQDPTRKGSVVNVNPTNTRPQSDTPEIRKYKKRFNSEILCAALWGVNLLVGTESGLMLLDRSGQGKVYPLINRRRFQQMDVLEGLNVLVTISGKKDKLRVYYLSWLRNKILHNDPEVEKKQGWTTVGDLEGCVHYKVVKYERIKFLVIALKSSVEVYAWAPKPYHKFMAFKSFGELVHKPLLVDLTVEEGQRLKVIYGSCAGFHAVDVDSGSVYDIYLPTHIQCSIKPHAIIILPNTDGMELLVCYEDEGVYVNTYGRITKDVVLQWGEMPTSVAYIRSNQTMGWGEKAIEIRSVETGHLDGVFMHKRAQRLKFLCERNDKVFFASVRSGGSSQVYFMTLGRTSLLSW

| Compound | IC50 [1] | IC50 [2] | IC50 [3] | IC50 [4] | IC50 [5] | IC50 [6] | IC50 [7] | IC50 [8] | IC50 [9] |
| --- | --- | --- | --- | --- | --- | --- | --- | --- | --- |
| CCCS(=O)(=O)Nc1ccc(F)c(C(=O)c2c[nH]c3ncc(CN4CCCC4)cc23)c1F [P-2259, Propane-1-sulfonic acid [2,4-difluoro-3-(5-pyrrolidin-1-ylmethyl-1H-pyrrolo[2,3-b]pyridine-3-carbonyl)-phenyl]-amide] | ≤ 10 µM | ≤ 10 µM | ≤ 10 µM | ≤ 10 µM |  |  |  |  |  |
| N#Cc1ccnc2[nH]cc(C(=O)c3c(F)ccc(NS(=O)(=O)c4cccnc4)c3F)c12 [P-2077, Pyridine-3-sulfonic acid [3-(4-cyano-1H-pyrrolo[2,3-b]pyridine-3-carbonyl)-2,4-difluoro-phenyl]-amide] | ≤ 10 µM | ≤ 10 µM | ≤ 10 µM | ≤ 10 µM |  |  |  |  |  |
| Cc1cnc2[nH]cc(C(=O)c3cc(NS(=O)(=O)c4cccnc4)ccc3F)c2c1 [P-2137, Pyridine-3-sulfonic acid [4-fluoro-3-(5-methyl-1H-pyrrolo[2,3-b]pyridine-3-carbonyl)-phenyl]-amide] |  |  |  |  |  | ≤ 10 µM | ≤ 10 µM | ≤ 10 µM | ≤ 10 µM |
| CCCS(=O)(=O)Nc1ccc(F)c(C(=O)c2c[nH]c3ncc(-c4cccc(S(C)(=O)=O)c4)cc23)c1F [P-2228, Propane-1-sulfonic acid {2,4-difluoro-3-[5-(3-methanesulfonyl-phenyl)-1H-pyrrolo[2,3-b]pyridine-3-carbonyl]-phenyl}-amide] | ≤ 10 µM | ≤ 10 µM |  | ≤ 10 µM | ≤ 10 µM | ≤ 10 µM | ≤ 10 µM | ≤ 10 µM | ≤ 10 µM |
| N#Cc1ccnc2[nH]cc(C(=O)c3c(F)ccc(NS(=O)(=O)N4CCOCC4)c3F)c12 [P-2395, Morpholine-4-sulfonic acid [3-(4-cyano-1H-pyrrolo[2,3-b]pyridine-3-carbonyl)-2,4-difluoro-phenyl]-amide] | ≤ 10 µM | ≤ 10 µM | ≤ 10 µM | ≤ 10 µM |  |  |  |  |  |
| O=C(CCCCC1SCC2NC(=O)NC21)NCCCCCNC(=O)CCc1cnc2[nH]cc(C(=O)c3c(F)ccc(NS(=O)(=O)c4ccc(C(F)(F)F)cc4)c3F)c2c1 (stereo not shown) [P-2008, 5-(2-Oxo-hexahydro-thieno[3,4-d]imidazol-6-yl)-pentanoic acid [5-(3-{3-[2,6-difluoro-3-(4-trifluoromethyl-benzenesulfonylamino)-benzoyl]-1H-pyrrolo[2,3-b]pyridin-5-yl}-propionylamino)-pentyl]-amide] | ≤ 10 µM | ≤ 10 µM |  | ≤ 10 µM | ≤ 10 µM |  | ≤ 10 µM | ≤ 10 µM | ≤ 10 µM |
| O=C(c1cc(NS(=O)(=O)c2ccc(C(F)(F)F)cc2)ccc1F)c1c[nH]c2ncccc12 [P-2119, N-[4-Fluoro-3-(1H-pyrrolo[2,3-b]pyridine-3-carbonyl)-phenyl]-4-trifluoromethyl-benzenesulfonamide] |  | ≤ 10 µM | ≤ 10 µM | ≤ 10 µM |  |  |  |  |  |
| CCCS(=O)(=O)Nc1ccc(F)c(C(=O)c2c[nH]c3ncc(-c4nn[nH]n4)cc23)c1F [P-2242, Propane-1-sulfonic acid {2,4-difluoro-3-[5-(2H-tetrazol-5-yl)-1H-pyrrolo[2,3-b]pyridine-3-carbonyl]-phenyl}-amide] |  |  |  |  | ≤ 10 µM | ≤ 10 µM | ≤ 10 µM | ≤ 10 µM | ≤ 10 µM |
| CCCCS(=O)(=O)Nc1ccc(F)c(C(=O)c2c[nH]c3ncc(-c4ccc(Cl)cc4)cc23)c1F [P-2300, Butane-1-sulfonic acid {3-[5-(4-chloro-phenyl)-1H-pyrrolo[2,3-b]pyridine-3-carbonyl]-2,4-difluoro-phenyl}-amide] |  |  |  |  | ≤ 10 µM | ≤ 10 µM | ≤ 10 µM | ≤ 10 µM | ≤ 10 µM |
| CCN(CC)S(=O)(=O)Nc1ccc(F)c(C(=O)c2c[nH]c3ncc(C#N)cc23)c1F [P-2385, N,N-diethylamino-sulfonic acid [3-(5-cyano-1H-pyrrolo[2,3-b]pyridine-3-carbonyl)-2,4-difluoro-phenyl]-amide] | ≤ 10 µM |  | ≤ 10 µM |  |  |  | ≤ 10 µM |  |  |
| O=C(O)CCc1cccc(-c2cnc3[nH]cc(C(=O)c4cccc(NS(=O)(=O)c5cccnc5)c4)c3c2)c1 [P-2148, 3-(3-{3-[3-(Pyridine-3-sulfonylamino)-benzoyl]-1H-pyrrolo[2,3-b]pyridin-5-yl}-phenyl)-propionic acid] |  | ≤ 10 µM |  |  | ≤ 10 µM | ≤ 10 µM | ≤ 10 µM | ≤ 10 µM | ≤ 10 µM |

Now from value to compound:

| IC50 [1] | IC50 [2] | IC50 [3] | IC50 [4] | IC50 [5] | IC50 [6] | IC50 [7] | IC50 [8] | IC50 [9] | Compound |
| --- | --- | --- | --- | --- | --- | --- | --- | --- | --- |
| ≤ 10 µM | ≤ 10 µM |  | ≤ 10 µM | ≤ 10 µM | ≤ 10 µM | ≤ 10 µM | ≤ 10 µM | ≤ 10 µM | CCCS(=O)(=O)Nc1ccc(F)c(C(=O)c2c[nH]c3ncc(-c4ccc(CCCOC)nc4)cc23)c1F [P-2226, Propane-1-sulfonic acid (2,4-difluoro-3-{5-[6-(3-methoxy-propyl)-pyridin-3-yl]-1H-pyrrolo[2,3-b]pyridine-3-carbonyl}-phenyl)-amide] |
| ≤ 10 µM | ≤ 10 µM |  | ≤ 10 µM | ≤ 10 µM | ≤ 10 µM | ≤ 10 µM | ≤ 10 µM | ≤ 10 µM | O=C(c1c(F)ccc(NS(=O)(=O)CCC(F)(F)F)c1F)c1c[nH]c2ncc(Cl)cc12 [P-2324, 3,3,3-Trifluoro-propane-1-sulfonic acid [3-(5-chloro-1H-pyrrolo[2,3-b]pyridine-3-carbonyl)-2,4-difluoro-phenyl]-amide] |
| ≤ 10 µM | ≤ 10 µM |  | ≤ 10 µM | ≤ 10 µM | ≤ 10 µM | ≤ 10 µM | ≤ 10 µM | ≤ 10 µM | N#Cc1cnc2[nH]cc(C(=O)c3c(F)ccc(NS(=O)(=O)CCC(F)(F)F)c3F)c2c1 [P-2331, 3,3,3-Trifluoro-propane-1-sulfonic acid [3-(5-cyano-1H-pyrrolo[2,3-b]pyridine-3-carbonyl)-2,4-difluoro-phenyl]-amide] |
| ≤ 10 µM | ≤ 10 µM | ≤ 10 µM | ≤ 10 µM |  |  |  |  |  | CCCS(=O)(=O)Nc1ccc(F)c(C(=O)c2c[nH]c3ncc(CN(CC)CC)cc23)c1F [P-2258, Propane-1-sulfonic acid [3-(5-diethylaminomethyl-1H-pyrrolo[2,3-b]pyridine-3-carbonyl)-2,4-difluoro-phenyl]-amide] |
| ≤ 10 µM |  | ≤ 10 µM |  |  |  |  |  |  | CCN(CC)S(=O)(=O)Nc1ccc(F)c(C(=O)c2c[nH]c3nccc(C#N)c23)c1F [P-2388, N,N-diethylamino-sulfonic acid [3-(4-cyano-1H-pyrrolo[2,3-b]pyridine-3-carbonyl)-2,4-difluoro-phenyl]-amide] |
| ≤ 10 µM |  | ≤ 10 µM |  |  |  | ≤ 10 µM |  |  | CCN(CC)S(=O)(=O)Nc1ccc(F)c(C(=O)c2c[nH]c3ncc(C)cc23)c1F [P-2386, N,N-diethylamino-sulfonic acid [2,4-difluoro-3-(5-methyl-1H-pyrrolo[2,3-b]pyridine-3-carbonyl)-phenyl]-amide] |
| ≤ 10 µM | ≤ 10 µM |  |  | ≤ 10 µM | ≤ 10 µM | ≤ 10 µM | ≤ 10 µM | ≤ 10 µM | O=C(O)CCc1cccc(-c2cnc3[nH]cc(C(=O)c4cccc(NS(=O)(=O)C5CCCCC5)c4)c3c2)c1 [P-2465, 3-{3-[3-(3-Cyclohexanesulfonylamino-benzoyl)-1H-pyrrolo[2,3-b]pyridin-5-yl]-phenyl}-propionic acid] |
| ≤ 10 µM |  | ≤ 10 µM |  |  |  | ≤ 10 µM |  |  | CCN(CC)S(=O)(=O)Nc1ccc(F)c(C(=O)c2c[nH]c3nccc(Cl)c23)c1F [P-2387, N,N-diethylamino-sulfonic acid [3-(4-chloro-1H-pyrrolo[2,3-b]pyridine-3-carbonyl)-2,4-difluoro-phenyl]-amide] |
| ≤ 10 µM | ≤ 10 µM |  | ≤ 10 µM |  | ≤ 10 µM | ≤ 10 µM | ≤ 10 µM | ≤ 10 µM | CCCS(=O)(=O)Nc1ccc(F)c(C(=O)c2c[nH]c3ncc(-c4cnc(C)nc4)cc23)c1F [P-2211, Propane-1-sulfonic acid {2,4-difluoro-3-[5-(2-methyl-pyrimidin-5-yl)-1H-pyrrolo[2,3-b]pyridine-3-carbonyl]-phenyl}-amide] |
